For data set [1], the system named is CCRF-CEM. In words: Antiproliferative activity against human CCRF-CEM cells. Type of data set: functional, cell-based.
In the next data set the test system is CEM-DNR. In words: Antiproliferative activity against human CEM-DNR cells. Format: functional, cell-based.
The subject of data set [2] is Ramos. The experiment in a line: Antiproliferative activity against human Ramos cells. Type of data set: functional, cell-based.
In another data set the test system is MOLT-4. In words: Antiproliferative activity against human MOLT-4 cells. Format: functional, cell-based.
Data set [3] can be described thus: Antiproliferative activity against human K562-Tax cells. Type of data set: functional, cell-based.
Data set [4] has as its system Jurkat. In words: Antiproliferative activity against human Jurkat cells. Format: functional, cell-based.
The subject of a further data set is U2OS. In words: Cytotoxicity against ITK/BTK null human U2OS cells assessed as inhibition of cell growth by MTS assay. (Tetrazolium dyes change colour on reduction, which living cells bring about.)
The test system of data set [5] is Jurkat. In words: Cytotoxicity against ITK positive human Jurkat cells assessed as inhibition of cell growth by MTS assay.
The test system of data set [6] is Ramos. In words: Cytotoxicity against BTK positive human Ramos cells assessed as inhibition of cell growth by MTS assay.
Another data set concerns K562. In words: Cytotoxicity against BTK positive human K562 cells assessed as inhibition of cell growth by MTS assay.
The test system of another data set is A549. The experiment in a line: Cytotoxicity against ITK/BTK null human A549 cells assessed as inhibition of cell growth by MTS assay.
In data set [7] the test system is CCRF-CEM. The experiment in a line: Cytotoxicity against ITK positive human CCRF-CEM cells assessed as inhibition of cell growth by MTS assay.
Data set [8] is described as follows: Cytotoxicity against ITK/BTK null human BJ cells assessed as inhibition of cell growth by MTS assay. Format: toxicity, cell-based.
A further data set deals with HCT-116. In words: Cytotoxicity against ITK/BTK null human HCT-116 cells assessed as inhibition of cell growth by MTS assay.
Data set [9] in a line: Cytotoxicity against ITK/BTK null human MRC5 cells assessed as inhibition of cell growth by MTS assay. Format: toxicity, cell-based.
Data set [10] has as its target T1, Tyrosine-protein kinase ITK/TSK (Homo sapiens, UniProt Q08881).
T1 sequence (Q08881 whole entry): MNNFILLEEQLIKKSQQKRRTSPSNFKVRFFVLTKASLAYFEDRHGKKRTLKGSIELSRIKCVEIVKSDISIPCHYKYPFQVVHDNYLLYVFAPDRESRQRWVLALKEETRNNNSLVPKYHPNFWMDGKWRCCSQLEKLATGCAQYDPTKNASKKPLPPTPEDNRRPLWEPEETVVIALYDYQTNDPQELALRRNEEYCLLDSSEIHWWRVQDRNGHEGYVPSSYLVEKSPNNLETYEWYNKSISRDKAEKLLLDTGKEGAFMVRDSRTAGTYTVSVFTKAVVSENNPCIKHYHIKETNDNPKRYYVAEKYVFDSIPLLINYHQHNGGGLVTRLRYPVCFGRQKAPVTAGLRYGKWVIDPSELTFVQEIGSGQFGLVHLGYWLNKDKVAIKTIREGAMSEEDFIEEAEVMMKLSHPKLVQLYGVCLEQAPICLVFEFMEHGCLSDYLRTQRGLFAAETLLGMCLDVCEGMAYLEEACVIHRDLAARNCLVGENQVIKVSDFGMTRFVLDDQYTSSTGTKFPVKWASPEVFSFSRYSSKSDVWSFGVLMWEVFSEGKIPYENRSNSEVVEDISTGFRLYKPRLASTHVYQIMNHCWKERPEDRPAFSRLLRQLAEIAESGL
In words: Inhibition of human ITK using poly (Glu:Tyr) as substrate in presence of ATP by ADP-glo kinase assay. In general terms: In ADP-Glo the light output rises with the ADP produced.

Usually IC50 stands for the concentration at which inhibition is half-maximal. The molecule `O=C(N1CCC2(CC1)C(=O)Nc1ncc(-c3ccc4c(c3)OCO4)cc12)C1(CF)CC1` came in with an IC50 with CCRF-CEM [1] of 25.5 µM.
On to `COC(=O)C1(C(=O)N2CCC3(CC2)C(=O)Nc2ncc(-c4ccc5c(c4)OCO5)cc23)CC1`, for which the IC50 was 15.2 µM in the data set on CCRF-CEM [1]; 20.4 µM in the data set with CEM-DNR; 23.9 µM with Ramos [2]; 28.8 µM in the data set with MOLT-4; 12.5 µM in data set [3]; 14.8 µM in the data set with Jurkat [4].
In the case of `CC(C)(F)C(=O)N1CCC2(CC1)C(=O)Nc1ncc(-c3ccc4c(c3)OCO4)cc12`, the IC50 with CCRF-CEM [1] is 3.79 µM; in the data set with CEM-DNR it was 6.01 µM; in the data set with Ramos [2], 16.4 µM; in data set [3] it was 3.68 µM; in the data set with Jurkat [4], 2.49 µM.
For `CCOC(=O)C(C)(C)C(=O)N1CCC2(CC1)C(=O)Nc1ncc(-c3ccc4c(c3)OCO4)cc12`, the IC50 with U2OS was over 50 µM; with Jurkat [5], 29.2 µM; with Ramos [6] it was over 50 µM; in the data set with K562, over 50 µM; with A549, over 50 µM; in the data set on CCRF-CEM [7] it was over 50 µM. Further, the IC50 (in data set [8]; in the data set on HCT-116; in data set [9]) was over 50 µM each time.
For the molecule `O=C(N1CCC2(CC1)C(=O)Nc1ncc(-c3ccc4c(c3)OCO4)cc12)C(F)(F)F`, the half-maximal inhibitory concentration (IC50) in the data set on U2OS was over 50 µM; with Jurkat [5], 10.8 µM; in the data set on Ramos [6], over 50 µM; in the data set with K562, over 50 µM; with A549 it was over 50 µM; in the data set on CCRF-CEM [7], 20.7 µM. The IC50 (in [8]; in the data set with HCT-116; in data set [9]) was over 50 µM throughout.
`O=C(N1CCC2(CC1)C(=O)Nc1ncc(-c3ccc4c(c3)OCO4)cc12)C1(F)CC1`: the concentration for half-maximal inhibition (IC50) in the data set on CCRF-CEM [1] amounted to 7.26 µM; with CEM-DNR it was 11.9 µM; in the data set with Ramos [2], 24.3 µM; in [3], 6.09 µM; with Jurkat [4], 2.25 µM.
On to `C=CC(=O)N1CCC2(CC1)C(=O)Nc1ncc(-c3ccc4c(c3)OCO4)cc12`, for which the half-maximal inhibitory concentration (IC50) in the data set with U2OS is over 50 µM; in the data set with Jurkat [5] it was over 50 µM; in the data set with Ramos [6], over 50 µM; in the data set with K562, over 50 µM; in the data set on A549, over 50 µM; with CCRF-CEM [7] it was 13.5 µM. The IC50 (in data set [8]; with HCT-116; in data set [9]) was over 50 µM in each case.
In the case of `CC(C)(C#N)C(=O)N1CCC2(CC1)C(=O)Nc1ncc(-c3ccc4c(c3)OCO4)cc12`, the IC50 was over 50 µM with U2OS; 9.36 µM with Jurkat [5]; 10.1 µM in the data set on Ramos [6]; over 50 µM in the data set with K562; over 50 µM in the data set with A549; 14.3 µM in the data set on CCRF-CEM [7]. Besides, the half-inhibitory concentration (IC50) (in data set [8]; in the data set on HCT-116; in data set [9]) was over 50 µM throughout.
Turning to `O=C1Nc2ncc(-c3ccc4c(c3)OCO4)cc2C12CCN(C(=O)C1(C(F)(F)F)CC1)CC2`, the IC50 in the data set on U2OS is over 50 µM; in the data set on Jurkat [5], 29.4 µM; in the data set with Ramos [6], 1.82 µM; in the data set with K562 it was over 50 µM; in the data set on A549 it was over 50 µM; in the data set on CCRF-CEM [7] it was 19.5 µM. For the same molecule, the IC50 (in [8]; in the data set with HCT-116; in [9]) was over 50 µM throughout.
For the molecule `C=C(F)C(=O)N1CCC2(CC1)C(=O)Nc1ncc(-c3ccc4c(c3)OCO4)cc12`, the IC50 was 18.9 µM in the data set on U2OS; 4.16 µM in the data set with Jurkat [5]; 1.38 µM in the data set with Ramos [6]; over 10 µM in data set [10]; over 50 µM with K562; over 50 µM in the data set with A549. The IC50 in the data set on CCRF-CEM [7] was 14.1 µM; in [8], over 50 µM; with HCT-116, over 50 µM; in [9] it was over 50 µM.
Take `C=CC(=O)N1CCC[C@@H](n2nc(-c3ccc(Oc4ccccc4)cc3)c3c(N)ncnc32)C1` [IBRUTINIB]: the IC50 in [8] came out at 28.9 µM; in [9], 27.9 µM.
For the molecule `O=C1Nc2ncc(-c3ccc4c(c3)OCO4)cc2C12CCN(S(=O)(=O)C(F)(F)F)CC2`, the IC50 in the data set on U2OS, with Jurkat [5], with Ramos [6], with K562, in the data set with A549 and in the data set on CCRF-CEM [7] was over 50 µM each time. Further, the 50% inhibitory concentration (IC50) (in [8]; with HCT-116; in data set [9]) was over 50 µM throughout.
On to `O=C(N1CCC2(CC1)C(=O)Nc1ncc(-c3ccc4c(c3)OCO4)cc12)C1(O)CC1`, for which the IC50 in the data set on U2OS, in the data set on Jurkat [5], with Ramos [6], in the data set with K562, with A549 and in the data set on CCRF-CEM [7] was over 50 µM throughout. Moreover, the IC50 (in [8]; in the data set on HCT-116; in data set [9]) was over 50 µM in each case.
As to `CC(C)(O)C(=O)N1CCC2(CC1)C(=O)Nc1ncc(-c3ccc4c(c3)OCO4)cc12`, the 50% inhibitory concentration (IC50) in the data set with U2OS, in the data set on Jurkat [5], in the data set with Ramos [6], in the data set on K562, in the data set on A549 and with CCRF-CEM [7] was over 50 µM throughout. Also, the IC50 (in [8]; in the data set on HCT-116; in data set [9]) was over 50 µM throughout.
Turning to `COC(=O)C1(C(=O)N2CCC3(CC2)C(=O)Nc2ncc(-c4cc(OC)c(OC)c(OC)c4)cc23)CC1`, the IC50 (in the data set on CCRF-CEM [1]; in the data set with CEM-DNR; in the data set with Ramos [2]; with MOLT-4; in data set [3]; in the data set on Jurkat [4]) was over 50 µM in each case.
With `O=C(O)C1(C(=O)N2CCC3(CC2)C(=O)Nc2ncc(-c4ccc5c(c4)OCO5)cc23)CC1`, the IC50 in the data set with U2OS, with Jurkat [5], in the data set with Ramos [6], in the data set on K562, with A549 and in the data set on CCRF-CEM [7] was over 50 µM in each case. The IC50 (in data set [8]; in the data set on HCT-116; in [9]) was over 50 µM each time.
Consider `N#CC1(C(=O)N2CCC3(CC2)C(=O)Nc2ncc(-c4ccc5c(c4)OCO5)cc23)CC1`, for which the IC50 in the data set with U2OS was over 50 µM; with Jurkat [5], 50 µM; in the data set on Ramos [6] it was 1.42 µM; in the data set with K562, over 50 µM; with A549, over 50 µM; in the data set on CCRF-CEM [7] it was over 50 µM. The half-inhibitory concentration (IC50) (in data set [8]; with HCT-116; in [9]) was over 50 µM throughout.
For `CC(F)(F)C(=O)N1CCC2(CC1)C(=O)Nc1ncc(-c3ccc4c(c3)OCO4)cc12`, the IC50 in the data set with U2OS is over 50 µM; in the data set on Jurkat [5], 3.58 µM; with Ramos [6], 3.06 µM; in data set [10], 0.91 µM; in the data set with K562 it was over 50 µM; with A549 it was over 50 µM. Besides, the concentration for half-maximal inhibition (IC50) in the data set on CCRF-CEM [7] was 17.2 µM; in data set [8], over 50 µM; in the data set on HCT-116, over 50 µM; in data set [9], over 50 µM.

(Values after ChEMBL document CHEMBL6115013, “Design, synthesis, and biological evaluation of novel azaspirooxindolinone derivatives as potent inhibitors of ITK and BTK-dependent cancers” (Bioorg Med Chem, 2025).)
